Test system: 463943-066-T-J2-PDC complex spheroid growth
Assay: Anticancer human tumor 463943-066-T-J2-PDC patient-derived colon adenocarcinoma cell line growth inhibition [Asc]
Details: for IC50: curve of first compound; for viability, T/C: stronger effect = lower value
In short: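 Complex solid-tumor spheroids incorporating human endothelial and mesenchymal stem cells received single agents or combinations over half-log dilution ranges anchored to clinical Cmax.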

[1] = second compound 0.0316 µM, first compound 0.0316 µM
[2] = second compound 0.0316 µM, first compound 0.1 µM
[3] = second compound 0.0316 µM, first compound 0.316 µM
[4] = second compound 0.0316 µM, first compound 1 µM
[5] = second compound 0.1 µM, first compound 0.0316 µM
[6] = second compound 0.1 µM, first compound 0.1 µM
[7] = second compound 0.1 µM, first compound 0.316 µM
[8] = second compound 0.1 µM, first compound 1 µM
[9] = second compound 0.316 µM, first compound 0.0316 µM
[10] = second compound 0.316 µM, first compound 0.1 µM
[11] = second compound 0.316 µM, first compound 0.316 µM
[12] = second compound 0.316 µM, first compound 1 µM
[13] = second compound 1 µM, first compound 0.0316 µM
[14] = second compound 1 µM, first compound 0.1 µM
[15] = second compound 1 µM, first compound 0.316 µM
[16] = second compound 1 µM, first compound 1 µM
[17] = second compound 3.16 µM, first compound 0.0316 µM
[18] = second compound 3.16 µM, first compound 0.1 µM
[19] = second compound 3.16 µM, first compound 0.316 µM
[20] = second compound 3.16 µM, first compound 1 µM
[21] = second compound 10 µM, first compound 0.0316 µM
[22] = second compound 10 µM, first compound 0.1 µM
[23] = second compound 10 µM, first compound 0.316 µM
[24] = second compound 10 µM, first compound 1 µM
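Also: compound exposure lasted 7 days.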
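For viability, T/C in this document: 100% = DMSO vehicle control wells.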

SMILES: C#Cc1c(F)ccc2cc(O)cc(-c3ncc4c(N5CC6CCC(C5)N6)nc(OCC56CCCN5CC(F)C6)nc4c3F)c12 (centres undefined) + Cc1c(S(C)(=O)=O)c(-c2cc(F)cc(N3CCN(c4ccc(NS(=O)(=O)c5ccc(NC(CCN6CCC(C(=O)OCCCP(=O)(O)O)CC6)CSc6ccccc6)c(S(=O)(=O)C(F)(F)F)c5)cc4)CC3)c2)c(-c2ccc(Cl)cc2)n1C(C)C
- IC50 (second compound 0.0316 µM): > 10000 nM
- IC50 (second compound 0.1 µM): > 10000 nM
- IC50 (second compound 0.316 µM): > 10000 nM
- IC50 (second compound 1 µM): > 10000 nM
- IC50 (second compound 3.16 µM): > 10000 nM
- IC50 (second compound 10 µM): < 31.6 nM
- viability, T/C [1]: 96.3%
- viability, T/C [2]: 93.3%
- viability, T/C [3]: 101%
- viability, T/C [4]: 102%
- viability, T/C (second compound 0.0316 µM, first compound 3.16 µM): 103%
- viability, T/C (second compound 0.0316 µM, first compound 10 µM): 97.5%
- viability, T/C [5]: 101%
- viability, T/C [6]: 97.1%
- viability, T/C [7]: 101%
- viability, T/C [8]: 94.1%
- viability, T/C (second compound 0.1 µM, first compound 3.16 µM): 98%
- viability, T/C (second compound 0.1 µM, first compound 10 µM): 82.1%
- viability, T/C [9]: 93.4%
- viability, T/C [10]: 92.8%
- viability, T/C [11]: 88.4%
- viability, T/C [12]: 93.1%
- viability, T/C (second compound 0.316 µM, first compound 3.16 µM): 97.2%
- viability, T/C (second compound 0.316 µM, first compound 10 µM): 73.4%
- viability, T/C [13]: 74.5%
- viability, T/C [14]: 76.5%
- viability, T/C [15]: 80.5%
- viability, T/C [16]: 80.6%
- viability, T/C (second compound 1 µM, first compound 3.16 µM): 77.7%
- viability, T/C (second compound 1 µM, first compound 10 µM): 72.3%
- viability, T/C [17]: 65.3%
- viability, T/C [18]: 64.3%
- viability, T/C [19]: 63.3%
- viability, T/C [20]: 62.1%
- viability, T/C (second compound 3.16 µM, first compound 3.16 µM): 65.9%
- viability, T/C (second compound 3.16 µM, first compound 10 µM): 61.3%
- viability, T/C [21]: 48.9%
- viability, T/C [22]: 47.7%
- viability, T/C [23]: 50.2%
- viability, T/C [24]: 51.2%
- viability, T/C (second compound 10 µM, first compound 3.16 µM): 51.2%
- viability, T/C (second compound 10 µM, first compound 10 µM): 43.9%

SMILES: CNC(C)C(=O)NC1CN(S(=O)(=O)c2cccc(S(=O)(=O)N3CCC4CCC(C(=O)NC(c5ccccc5)c5ccccc5)N4C(=O)C(NC(=O)C(C)NC)C3)c2)CCC2CCC(C(=O)NC(c3ccccc3)c3ccccc3)N2C1=O (centres undefined) + Cc1c(S(C)(=O)=O)c(-c2cc(F)cc(N3CCN(c4ccc(NS(=O)(=O)c5ccc(NC(CCN6CCC(C(=O)OCCCP(=O)(O)O)CC6)CSc6ccccc6)c(S(=O)(=O)C(F)(F)F)c5)cc4)CC3)c2)c(-c2ccc(Cl)cc2)n1C(C)C
- IC50 (second compound 0.0316 µM): > 1000 nM
- IC50 (second compound 0.1 µM): > 1000 nM
- IC50 (second compound 0.316 µM): > 1000 nM
- IC50 (second compound 1 µM): > 1000 nM
- IC50 (second compound 3.16 µM): > 1000 nM
- IC50 (second compound 10 µM): 368 nM
- viability, T/C (second compound 0.0316 µM, first compound 0.00316 µM): 99.7%
- viability, T/C (second compound 0.0316 µM, first compound 0.01 µM): 97.5%
- viability, T/C [1]: 97.2%
- viability, T/C [2]: 99.9%
- viability, T/C [3]: 97.6%
- viability, T/C [4]: 80.7%
- viability, T/C (second compound 0.1 µM, first compound 0.00316 µM): 100%
- viability, T/C (second compound 0.1 µM, first compound 0.01 µM): 91.6%
- viability, T/C [5]: 96.6%
- viability, T/C [6]: 94.4%
- viability, T/C [7]: 98.8%
- viability, T/C [8]: 74%
- viability, T/C (second compound 0.316 µM, first compound 0.00316 µM): 88.6%
- viability, T/C (second compound 0.316 µM, first compound 0.01 µM): 89.3%
- viability, T/C [9]: 88.2%
- viability, T/C [10]: 87.4%
- viability, T/C [11]: 93.2%
- viability, T/C [12]: 70.6%
- viability, T/C (second compound 1 µM, first compound 0.00316 µM): 82.8%
- viability, T/C (second compound 1 µM, first compound 0.01 µM): 77%
- viability, T/C [13]: 77.8%
- viability, T/C [14]: 83.8%
- viability, T/C [15]: 76.8%
- viability, T/C [16]: 67.2%
- viability, T/C (second compound 3.16 µM, first compound 0.00316 µM): 65.8%
- viability, T/C (second compound 3.16 µM, first compound 0.01 µM): 77.3%
- viability, T/C [17]: 66%
- viability, T/C [18]: 68.9%
- viability, T/C [19]: 70.7%
- viability, T/C [20]: 48.2%
- viability, T/C (second compound 10 µM, first compound 0.00316 µM): 52.3%
- viability, T/C (second compound 10 µM, first compound 0.01 µM): 49.5%
- viability, T/C [21]: 52%
- viability, T/C [22]: 51.3%
- viability, T/C [23]: 52.5%
- viability, T/C [24]: 40.8%

— PubChem BioAssay AID1963422 (Molecular Pharmacology Branch, DTP, NCI, 2024)
